These results are taken from patent US8536208B2, “Antifungal composition” (Basilea Pharmaceutica AG, priority 2007, dated 2013).

This series can be described thus: Single dose bioavailability study on fasted subjects. The settings on record: human, in vivo, Galenical formulation Example 4 (composition 2.3). Here is the method: A single dose bioavailability study is conducted on N fasted subjects using the composition of this Example (N=7, dose of compound I-A 433.3 mg corresponding to 400 mg free base of formula I-B), and the same amount in powder form filled into hard capsules, (N=6). BAL8557, a water-soluble prodrug of the compound of formula I-B according to EP-A-1 280 795, is used as a standard (capsule comprising BAL 8557 in powder form in an amount corresponding to 400 mg free base of formula I-B; N=3).

Where [1] appears, read: single oral dose 433.3 mg I-A (400 mg free base I-B), N=7.

Take `C[C@@H](c1nc(-c2ccc(C#N)cc2)cs1)[C@](O)(Cn1cncn1)c1cc(F)ccc1F.Cl` [Compound I-A]: where the note is “433.3 mg, single oral dose equal to 400 mg free base I-B, BAL 8557 as standard, read-out: Frel (relative bioavailability)”, the bioavailability is 90%. Besides, under setting [1], the Cmax worked out at 4410 ng/mL, the time to peak (Tmax) was 1.5 h and the half-life is 88 h. The AUC (single oral dose 433.3 mg I-A (400 mg free base I-B), N=7, read-out: AUCinfinite) was 193 µg·h/mL.
